Source: patent US6706692B1, “6-deoxy erythromycin derivatives, method for preparing same and use as medicines” (Aventis Pharma S.A., priority 1998, dated 2004)

What was measured:
Assay in all cases: Method of dilutions in liquid medium (M.I.C.)
Assay type in all cases: cell-based
Details in all cases: reading after 24 hours, 37° C.
S. agalactiae 02B1SJ1c = tested on: S. agalactiae 02B1SJ1c
Procedure: (§1) A—Method of Dilutions in Liquid Medium A series of tubesis prepared in which the same quantity of nutritive sterile medium is distributed. Increasing quantities of the product to be studied are distributed into each tube, then each tube is sown with a bacterial strain. After incubation for twenty-four hours in a heating chamber at 37° C., the growth inhibition is evaluated by transillumination, which allows the minimal inhibitory concentrations (M.I.C.) to be determined, expressed in micrograms/cm^3. The following results were obtained with the product of the example: (reading after 24 hours)

S. pneumoniae 030PW23c = tested on: S. pneumoniae 030PW23c
Procedure: as §1

S. agalactiae 02B1HT1 = tested on: S. agalactiae 02B1HT1
Procedure: as §1

S. pneumoniae 032UC1 = tested on: S. pneumoniae 032UC1
Procedure: as §1

S. pneumoniae 030GR20 = tested on: S. pneumoniae 030GR20
Procedure: as §1

S. mitis 02MitGR16i = tested on: S. mitis 02MitGR16i
Procedure: as §1

S. aureus 011UC4 = tested on: S. aureus 011UC4
Procedure: as §1

E. faecalis 02D2UC1 = tested on: E. faecalis 02D2UC1
Procedure: as §1

E. faecium 02D3HT1 = tested on: E. faecium 02D3HT1
Procedure: as §1

S. mitis 02MitCB1 = tested on: S. mitis 02MitCB1
Procedure: as §1

[1] = tested on: Streptococcus gr;G 02GOGR5
Procedure: as §1

S. pneumoniae 030RO1i = tested on: S. pneumoniae 030RO1i
Procedure: as §1

S. pneumoniae 030SJ5i = tested on: S. pneumoniae 030SJ5i
Procedure: as §1

With “3-de[2,6-dideoxy-3-C-methyl-3-0-methyl-alpha-L-ribo-hexopyranosyl)-oxy]-3-oxo-12,11-[oxycarbonyl[[4-[4-(3-pyridinyl)-1H-imidazol-1-yl]-butyl]-imino]]-6,11,12-trideoxy-erythromycin [product of the example]” the “minimal inhibitory concentrations (M.I.C.)” value (S. agalactiae 02B1SJ1c) was 2.500 micrograms/cm^3, the “minimal inhibitory concentrations (M.I.C.)” value (S. pneumoniae 030PW23c) was 0.300 micrograms/cm^3 and the “minimal inhibitory concentrations (M.I.C.)” value (S. agalactiae 02B1HT1) was “<+0.02 micrograms/cm^3”. The “minimal inhibitory concentrations (M.I.C.)” value (S. pneumoniae 032UC1) was “<=0.02 micrograms/cm^3”, the “minimal inhibitory concentrations (M.I.C.)” value (S. pneumoniae 030GR20) was 0.600 micrograms/cm^3 and the “minimal inhibitory concentrations (M.I.C.)” value (S. mitis 02MitGR16i) was 0.300 micrograms/cm^3. For the same substance, the “minimal inhibitory concentrations (M.I.C.)” value (S. aureus 011UC4) was 0.300 micrograms/cm^3, the “minimal inhibitory concentrations (M.I.C.)” value (E. faecalis 02D2UC1) was 0.080 micrograms/cm^3 and the “minimal inhibitory concentrations (M.I.C.)” value (E. faecium 02D3HT1) was 0.040 micrograms/cm^3. For the same substance, the “minimal inhibitory concentrations (M.I.C.)” value (S. mitis 02MitCB1) was 0.040 micrograms/cm^3, the “minimal inhibitory concentrations (M.I.C.)” value [1] was 0.040 micrograms/cm^3 and the “minimal inhibitory concentrations (M.I.C.)” value (S. pneumoniae 030RO1i) was 0.600 micrograms/cm^3. The “minimal inhibitory concentrations (M.I.C.)” value (S. pneumoniae 030SJ5i) was 0.600 micrograms/cm^3.
